The record followed here is US20110306665A1, “COSMETIC PREPARATION, METHOD FOR PRODUCING SAME, COMPOSITION FOR COSMETIC PREPARATIONS, COSMETIC PREPARATION CONTAINING THE COMPOSITION FOR COSMETIC PREPARATIONS AND METHOD FOR PRODUCING SAME, AND CLEANSER FOR INDUSTRIAL USE” (The Nisshin OilliO Group, Ltd., priority 2009, published 2011).

The nature of data set [1]: Moisturizing properties of cosmetic preparation compositions (massage oil, panel). The format is in vivo, human. The arrangement: key: Good: Very soft and moistened touch was felt.; Moderate: Soft and moistened touch was felt.; Poor: No moistened touch was felt. The note with it: neat cosmetic preparation composition (massage oil); 0.05 g, rubbed twenty times, wiped; seven panelists. On the procedure: In Example 12, the PDO diisostearate obtained from Synthesis Example 1 was used as a cosmetic preparation composition (moisturizing ingredient) for a moisturizing cosmetic preparation (massage oil), and the moisturizing properties and the feeling of use thereof were evaluated.
The insides of the arms of seven panelists were washed with soap and water, and in addition, the washed surfaces were wiped with ethanol and naturally dried. Thereafter, each of the thus washed surfaces was evenly divided into eight equal areas, to which 0.05 g of the respective cosmetic preparation compositions of Example 12, and Comparative Examples 4 to 7 and 4A to 4C, was applied and massage was done by gently rubbing with a finger twenty times. Thereafter, the area was wiped with a dry cloth. On completion of this wiping, the moisturizing properties and the feeling of use of the respective cosmetic preparation compositions were evaluated in accordance with the same criteria as those of the moisturizing gels of Examples 6 to 8 mentioned above.

A short description of data set [2]: Viscosity by stress-controlled rheometer at 20° C. The class given is physicochemical. On the procedure: (§1) Next, the viscosity and the friction coefficient of the cosmetic preparation compositions of Example 12 and Comparative Examples 4 to 7 and 4A to 4C were measured.
The viscosity was measured by using a stress-controlled rheometer (Product No. RheoStress RS1, with a C60/2 Ti sensor, a product of Haake Company) at 20° C.

A short description of data set [3]: Friction coefficient on artificial leather (friction tester). The note with it: 5 μL on artificial leather, pressure of 100 g. The format is physicochemical. On the procedure: as §1
The friction coefficient was measured by such a way that: 5 μL of each cosmetic preparation composition was applied to the surface of an artificial leather (Product Name: Supplale, a product of Idemitsu Technofine Co., Ltd.), and the applied surface was measured for the friction coefficient and the change in the value of the friction coefficient, by using a friction tester (Type: TL201Ts, a product of Trinity-Lab Co., Ltd.) with a pressure of 100 g.

A short description of data set [4]: Cleansing properties: removal of ink of an oil paint pen from the skin (panel). The format is in vivo, human. The note with it: black oil paint pen line on inside of arm, rubbed thirty times at about 200 g; seven panelists. On the procedure: In Example 13, the cleansing properties and the low irritation properties of the PDO-C8/C10 diester obtained from Synthesis Example 2 as a cosmetic preparation composition for a cosmetic preparation to be used for the purpose of removing an ink of an oil paint pen (ink remover ingredient) from the skin, were evaluated. The insides of the arms of seven panelists were washed with soap and water, and in addition, the washed surfaces were wiped with ethanol and naturally dried. Thereafter, using a black oil paint pen (Product Name: […] product of Zebra Co., Ltd.), a line was painted respectively on the washed surfaces of the insides of their arms. Next, the painted line was evenly divided into seven equal areas. […] From the proportion of the line painted with the oil paint pen which had been able to be removed by this removal operation, the cleansing properties of the respective cosmetic preparation compositions as an ink remover ingredient were evaluated in accordance with the following criteria. The results of their averages are shown in Table 14. <Evaluation Criteria of Cleansing Properties> Excellent: High cleansing properties, meaning that a proportion of 75 to 100% in the line painted with the oil paint pen was able to be removed. Good: Relatively high cleansing properties, meaning that a proportion of 50 to 75% in the line painted with the oil paint pen was able to be removed. Moderate: Some cleansing properties, meaning that only a proportion of 25 to 50% in the line painted with the oil paint pen was able to be removed. Poor: Weak cleansing properties, meaning that only a proportion of 0 to 25% in the line painted with the oil paint pen was able to be removed.

The nature of data set [5]: Low irritation properties: 24 hours airtight application with Finn Chamber (panel). The class given is in vivo, human. On the procedure: Moreover, the low irritation properties of the respective cosmetic preparation compositions as an ink remover ingredient were evaluated in the following manner. The insides of the arms of seven panelists were washed with soap and water, and in addition, the washed surfaces were wiped with ethanol and naturally dried. Next, each of the thus washed surfaces was evenly divided into seven equal areas, to which 0.01 g of the respective cosmetic preparation compositions of Examples 13 and 13A to 13D, and Comparative Examples 8 and 9, was applied airtightly by using Finn Chamber (a product of Epitest Ltd Oy). After 24 hours, the Finn Chamber and the cosmetic preparation compositions were taken off. After 1 hour, the condition of the skin was observed. The low irritation properties of the respective cosmetic preparation compositions as an ink remover ingredient were evaluated in accordance with the following criteria. <Evaluation Criteria of Low Irritation Properties> Good: No change was found in the skin of the airtightly applied part. Moderate: A slight rash was found in the skin of the airtightly applied part.

Data set [6] is described as follows: Cleansing properties of industrial use cleansers: oil paint pen ink on coated steel panel. The note with it: industrial use cleanser; black oil paint pen line on coated steel panel, rubbed thirty times at about 200 g. On the procedure:
The cleansing properties of the respective industrial use cleansers as an agent to remove an oil soluble colorant from a coated steel panel were evaluated in the following manner.
First, an electro-galvanized steel panel was coated with commercially available automotive paints, namely, a primer surfacer (Product Name: Primer White (a product of Musashi Holt Co., Ltd.)), a white automotive paint (Product Name: Antirust Paint (Color No. 041) (a product of Musashi Holt Co., Ltd.)), and a clear paint (Product Name: Topcoat Clear (a product of Musashi Holt Co., Ltd.)), by spraying according to the usage instruction of each product, and dried at 25° C. for 24 hours. By so doing, a coated steel panel for the test was obtained.
Next, using a black oil paint pen (Product Name: Mckee Care, a product of Zebra Co., Ltd.), a line was painted on the surface of the coated steel panel, and dried at 25° C. for 24 hours.
Subsequently, the painted line was evenly divided into seven equal areas. Each area was rubbed with an absorbent cotton that had been impregnated with, but to a degree which would not allow a leakage of, the industrial use cleanser of Examples 14, 14A, and 14B, or the oil agent of Comparative Examples 10, 11, 11A, and 11B, while loading a pressure of about 200 g in a reciprocating manner thirty times. From the proportion of the ink of the line painted with the oil paint pen which had been able to be removed by this removal operation, the cleansing properties of the respective industrial use cleansers of Examples 14, 14A, and 14B, or the respective oil agents of Comparative Examples 10, 11, 11A, and 11B, as the agent to remove the oil soluble colorant, were evaluated by eye in accordance with the following criteria.
<Evaluation Criteria of Cleansing Properties>
Excellent: High cleansing properties, meaning that a proportion of 75 to 100% in the line painted with the oil paint pen on the coated steel panel was able to be removed.
Good: Relatively high cleansing properties, meaning that a proportion of 50 to 75% in the line painted with the oil paint pen on the coated steel panel was able to be removed.
Moderate: Some cleansing properties, meaning that only a proportion of 25 to 50% in the line painted with the oil paint pen on the coated steel panel was able to be removed.
Poor: Weak cleansing properties, meaning that only a proportion of 0 to 25% in the line painted with the oil paint pen on the coated steel panel was able to be removed.
The cleansing properties and the low corrosion properties of the respective industrial use cleansers as an agent to remove an oil soluble colorant for a coated steel panel were evaluated in the same manner as those of the industrial use cleanser in Example 14. […]

Where [7] appears, read: 0.01 g airtight in Finn Chamber 24 hours, skin observed 1 hour after removal, seven panelists.

Consider `CCCCCCCCCCCCCCCCCC(=O)OCCCOC(=O)CCCCCCCCCCCCCCCCC` [Comparative Example 4A, PDO distearate], for which the Moisturizing properties result in data set [1] is recorded as “Moderate”. The “Viscosity (mPa · s) (20° C.)” value in data set [2] is given as “Not measurable”.

As to `CC(CCC(C(=O)OCCCOC(=O)C(CCC(C)CC(C)(C)C)C(C)CC(C)(C)C)C(C)CC(C)(C)C)CC(C)(C)C` (stereo not drawn) [Comparative Example 4B], the Moisturizing properties result in data set [1] was “Good”. Further, in data set [3], the “Changed value of friction coefficient” value is given as 0.0080 and the Friction coefficient was determined as 0.170. In data set [2], the “Viscosity (mPa · s) (20° C.)” value is recorded as 1003 mPa · s.

On to `CC(C)CCCC(C)CCCC(C)CCCCC(C)CCCC(C)CCCC(C)C` (stereo not drawn) [Comparative Example 5, squalane], for which, in data set [1], the Moisturizing properties entry was “Good”. Also, in data set [3], the “Changed value of friction coefficient” value was 0.0062 and the Friction coefficient stood at 0.155. Further, the “Viscosity (mPa · s) (20° C.)” value in data set [2] was determined as 36.0 mPa · s.

For `CC(C)CCCCCCOC(=O)CCCCCC(C)C` [Comparative Example 8, isononyl isononanoate, reference compound], the Cleansing properties result in data set [4] was “Good (Relatively high cleansing properties, meaning that a proportion of 50 to 75% in the line painted with the oil paint pen was able to be removed.)”. For the same compound, the “Condition of the skin of the airtightly applied part” value in data set [5] (0.01 g airtight in Finn Chamber 24 hours, skin observed 1 hour after removal) is reported as “a notable rash was found”. The Low irritation properties entry in data set [5] (setting [7]) was “Poor”.

As to `CCO` [Comparative Example 10, ethanol, reference compound], the Cleansing properties entry in data set [6] is “Excellent (High cleansing properties, meaning that a proportion of 75 to 100% in the line painted with the oil paint pen on the coated steel panel was able to be removed.)”.

Take `CCCCCCCC(=O)OCCCOC(=O)CCCCCCC` [Example 13A, PDO-di-n-Octanoic Acid Ester]: the Cleansing properties entry in data set [6] is “Excellent (High cleansing properties, meaning that a proportion of 75 to 100% in the line painted with the oil paint pen on the coated steel panel was able to be removed.)”; in data set [4] it was “Excellent (High cleansing properties, meaning that a proportion of 75 to 100% in the line painted with the oil paint pen was able to be removed.)”. Further, the Low irritation properties result in data set [5] (setting [7]) is on record as “Moderate”.

As for `CCCCCCCCCC(=O)OCCCOC(=O)CCCCCCCCC` [Example 13D, PDO-di-n-decanoic acid ester], the Cleansing properties result in data set [6] is “Poor (Weak cleansing properties, meaning that only a proportion of 0 to 25% in the line painted with the oil paint pen on the coated steel panel was able to be removed.)”; in data set [4], “Poor (Weak cleansing properties, meaning that only a proportion of 0 to 25% in the line painted with the oil paint pen was able to be removed.)”. For the same compound, in data set [5] (in vivo), the Low irritation properties result is reported as “Good”.

PDO-C8/C10 diester [Example 13]: the Cleansing properties entry in data set [6] is “Excellent (High cleansing properties, meaning that a proportion of 75 to 100% in the line painted with the oil paint pen on the coated steel panel was able to be removed.)”; in data set [4], “Excellent (High cleansing properties, meaning that a proportion of 75 to 100% in the line painted with the oil paint pen was able to be removed.)”. Besides, the Low irritation properties result in data set [5] (setting [7]) is on record as “Good”.

Take PDO-C8/C10=25:75 diester [Example 13C]: the Cleansing properties entry is “Moderate (Some cleansing properties, meaning that only a proportion of 25 to 50% in the line painted with the oil paint pen on the coated steel panel was able to be removed.)” in data set [6] and “Moderate (Some cleansing properties, meaning that only a proportion of 25 to 50% in the line painted with the oil paint pen was able to be removed.)” in data set [4]. Moreover, the Low irritation properties entry in data set [5] (setting [7]) is reported as “Good”.

On to PDO-C8/C10=50:50 diester [Example 13B], for which the Cleansing properties entry is “Good (Relatively high cleansing properties, meaning that a proportion of 50 to 75% in the line painted with the oil paint pen on the coated steel panel was able to be removed.)” in data set [6] and “Good (Relatively high cleansing properties, meaning that a proportion of 50 to 75% in the line painted with the oil paint pen was able to be removed.)” in data set [4]. Besides, the Low irritation properties entry in data set [5] (setting [7]) is “Good”.

With “PDO-Garbett isostearic acid diester [Comparative Example 4C]”, the Moisturizing properties entry in data set [1] was “Poor”. In data set [3], the “Changed value of friction coefficient” value is 0.0056 and the Friction coefficient was found to be 0.147. The “Viscosity (mPa · s) (20° C.)” value in data set [2] is given as 57.5 mPa · s.
